Measurements taken from patent US9562031B1, “Phenethyldihydrobenzodioxolones and methods of use” (Sequoia Sciences, Inc., priority 2015, dated 2017).

Tests used:
[1] = system: M14 (amelanotic melanoma) cells; experiment: antiproliferation assay (72 h, CELLTITER 96), M14; type: cell-based, human; details: Homo sapiens; Table 4
Outline: (§1)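 Human M14 melanoma and NCI-H460 lung carcinoma cells in RPMI-1640/10% FBS, seeded at 5×10^2–5×10^4 cells/well and adhered overnight, then exposed to seven compound concentrations for 72 h at 37 °C. Viable cells read by CellTiter 96 AQueous (MTS); IC50 = concentration giving 50% of maximal growth inhibition.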

[2] = system: NCI-H460 (large cell lung carcinoma) cells; experiment: antiproliferation assay (72 h, CELLTITER 96), NCI-H460; type: cell-based, human; details: Homo sapiens, NCI-H460, Table 4; read-out: NCI-H460 IC50
Outline: as §1

A549 cells = experiment: antiproliferation assay, A549; type: cell-based; details: Homo sapiens
Protocol: (§2) For the antiproliferation assay, NCI-H460 (large cell lung carcinoma) or M14 (amelanotic melanoma) cells were grown in RPMI-1640 with 10% FBS supplemented with L-glutamine and HEPES. Cells were seeded into 96-well plates at 5×10^2 to 5×10^4 cells/well and allowed to adhere overnight; the medium was then removed. A stock solution of test compound in DMSO was diluted in medium to generate a series of working solutions. Aliquots (100 μl) of the working solutions were then added to the appropriate test wells to expose cells to the final concentrations of compound in a total volume of 100 μl. Seven different concentrations were tested, with 2-5 wells per concentration. Camptothecin was used as a positive control; wells containing vehicle without compound were used as negative controls. Plates were kept for 72 h in a 37° C., 5% CO2 incubator. After incubation, viable cells were detected with the CELLTITER 96 AQueous Non-Radioactive Cell Proliferation Assay (Promega), and IC50 values were determined using GraphPad Prism 5 software.
(§3) Antiproliferation of several of the active compounds was tested against additional cell lines.

HCT-116 cells = experiment: antiproliferation assay, HCT-116; type: cell-based; details: Homo sapiens
Protocol: as §2, §3

LOX-IMVI cells = experiment: antiproliferation assay, LOX-IMVI; type: cell-based; details: Homo sapiens
Protocol: as §2, §3

PC-3 cells = experiment: antiproliferation assay, PC-3; type: cell-based; details: Homo sapiens
Protocol: as §2, §3

SK-Mel-2 cells = experiment: antiproliferation assay, SK-Mel-2; type: cell-based; details: Homo sapiens
Protocol: as §2, §3

SK-Mel-5 cells = experiment: antiproliferation assay, SK-Mel-5; type: cell-based; details: Homo sapiens
Protocol: as §2, §3

U-87 MG cells = experiment: antiproliferation assay, U-87 MG; type: cell-based; details: Homo sapiens
Protocol: as §2, §3

UACC-62 cells = experiment: antiproliferation assay, UACC-62; type: cell-based; details: Homo sapiens
Protocol: as §2, §3

NCI/ADR-RES cells = experiment: antiproliferation assay, NCI/ADR-RES; type: cell-based; details: Homo sapiens
Protocol: as §2, §3
Compound 4 was tested for antiproliferation activity against several paclitaxel-resistant human cancer cell lines.

NCI-H187 cells = experiment: antiproliferation assay, NCI-H187; type: cell-based; details: Homo sapiens
Protocol: as §2, §3

NCI-H441 cells = experiment: antiproliferation assay, NCI-H441; type: cell-based; details: Homo sapiens
Protocol: as §2, §3

NCI-H526 cells = experiment: antiproliferation assay, NCI-H526; type: cell-based; details: Homo sapiens
Protocol: as §2, §3

| IC50 [1] [nM] | IC50 [2] [nM] | IC50 (A549 cells) [nM] | IC50 (HCT-116 cells) [nM] | IC50 (PC-3 cells) [nM] | IC50 (SK-Mel-2 cells) [nM] | IC50 (SK-Mel-5 cells) [nM] | IC50 (U-87 MG cells) [nM] | IC50 (NCI-H187 cells) [nM] | IC50 (NCI-H441 cells) [nM] | IC50 (NCI-H526 cells) [nM] | Compound | IC50 (LOX-IMVI cells) [nM] | IC50 (UACC-62 cells) [nM] | IC50 (NCI/ADR-RES cells) [nM] |
| --- | --- | --- | --- | --- | --- | --- | --- | --- | --- | --- | --- | --- | --- | --- |
| 81 | 75 | 110 | 22 | 66 | 110 | 34 | 100 | – | – | – | C=CC[C@H]1C[C@]2([C@H](C)Cc3ccc(OC)cc3)OCOC2=CC1=O [Compound 26, (6S,7aR)-6-allyl-7a-((R)-1-(4-methoxyphenyl)propan-2-yl)-7,7a-dihydrobenzo[d][1,3]dioxol-5(6H)-one] | 150 | 96 | – |
| 7.9 | 83 | – | 13 | – | – | – | – | 46 | 140 | 79 | C=CC[C@H]1C[C@]2([C@@H](C)Cc3ccc(OC)c(O)c3)OCOC2=CC1=O [Compound 32, (6S,7aR)-6-allyl-7a-((S)-1-(3-hydroxy-4-methoxyphenyl)propan-2-yl)-7,7a-dihydrobenzo[d][1,3]dioxol-5(6H)-one] | 12 | – | 38 |
